One assay deals with IL-6 protein. The experiment in a line: ELISA, IL-6 protein after CCI injury. The assay is classed as in vivo, rat. The settings on record: single-dose 30 mg kg^-1 i.p.; ipsilateral cortex, 1 day post-injury; P<0.01. As to the method: A previously described CCI injury procedure was utilized (Chen et al., 2003). Male Sprague-Dawley rats, which have body weight of 250-300 g, were anaesthetized with sodium pentobarbital (i.p.; 50 mgkg^−1; Rhone Merieux, Harlow, UK) and placed in a stereotaxic frame. A 5-mm craniotomy was performed over the left parietal cortex, centered on the coronal suture and 3 mm lateral to the sagittal suture. Considerable care was taken to avoid injury to the underlying dura. Injury was made using a pneumatic piston with a rounded metal tip (2.5 mm diameter) that was angled 22.5° C. to the vertical so that the tip was perpendicular with the brain surface at the centre of the craniotomy. A velocity of 4 ms^−1 and a deformation depth 2 mm below the dura were used. […] Body temperature was monitored throughout the surgery by a rectal probe; temperature was maintained at 37.0±0.5° C. using a heated pad. […]
Single-dose baicalein (30 mg kg^−1) or a corresponding volume of vehicle was administered i.p. immediately following injury. […] Testing after injury was as follows: (1) real-time quantitative RT-PCR analysis for TNF-α, IL-1β and IL-6 mRNA expression at 6 h post-injury (n=7 for each group); (2) FluoroJade B (FJB) staining, TNF-α, IL-1β and IL-6 immunohistochemistry, as well as ELISA at 24 h post-injury to assess degenerative neurons and to determine cytokine expression (n=7 for each group). […]
(ELISA stands for enzyme-linked immunosorbent assay.)

Another assay has as its system IL-6 mRNA. As to the kind of experiment: Real-time quantitative RT-PCR, IL-6 mRNA after CCI injury. The settings on record: single-dose 30 mg kg^-1 i.p.; ipsilateral cortex, 6 h after injury; P<0.05. The assay is classed as in vivo, rat. As to the method:
A previously described CCI injury procedure was utilized (Chen et al., 2003). Male Sprague-Dawley rats, which have body weight of 250-300 g, were anaesthetized with sodium pentobarbital (i.p.; 50 mgkg^−1; Rhone Merieux, Harlow, UK) and placed in a stereotaxic frame. A 5-mm craniotomy was performed over the left parietal cortex, centered on the coronal suture and 3 mm lateral to the sagittal suture. Considerable care was taken to avoid injury to the underlying dura. Injury was made using a pneumatic piston with a rounded metal tip (2.5 mm diameter) that was angled 22.5° C. to the vertical so that the tip was perpendicular with the brain surface at the centre of the craniotomy. A velocity of 4 ms^−1 and a deformation depth 2 mm below the dura were used. […] Body temperature was monitored throughout the surgery by a rectal probe; temperature was maintained at 37.0±0.5° C. using a heated pad. […] Testing after injury was as follows: (1) real-time quantitative RT-PCR analysis for TNF-α, IL-1β and IL-6 mRNA expression at 6 h post-injury (n=7 for each group); (2) FluoroJade B (FJB) staining, TNF-α, IL-1β and IL-6 immunohistochemistry, as well as ELISA at 24 h post-injury to assess degenerative neurons and to determine cytokine expression (n=7 for each group). […] Approximately 50 mg tissue was collected from the ipsilateral (injured) hemisphere and processed for real-time quantitative RT-PCR. […]

The values below come from patent publication US20100222421A1, “Usage of Baicalein in the Preparation of a Pharmaceutical Composition for the Treatment of Traumatic Brain Injury” (National Defense Medical Center, priority 2009, published 2010).

Consider `O=c1cc(-c2ccccc2)oc2cc(O)c(O)c(O)c12` [baicalein], for which the “IL-6 protein concentration, % of concentration in vehicle-treated rats” value in the assay with IL-6 protein worked out at 67%. Besides, the “IL-6 mRNA level, % of level in vehicle-treated injured rats” value in the assay with IL-6 mRNA was 43.6%.
